{"source": "the SangsterLogP compilation", "key": {"[1]": {"assay": "method code SF, from DOI: 10.1016/s0021-9673(01)84246-1"}, "[2]": {"assay": "method code SF, from DOI: 10.1016/0006-291x(88)90214-8", "conditions": "pH 7.4"}, "[3]": {"assay": "method code SF-GLC,AS, from DOI: 10.2134/jeq1981.00472425001000030028x"}, "[4]": {"assay": "method code SF, from Zhuang, J.; Mo, H.; An, F.; Yang, K. (1993). Determination of the water solubility and n-octanol/water partition coefficient of pesticide N-(2,4-dimethylphenyl)-N'-methylamidine. Huanjing Huaxue, …"}, "[5]": {"assay": "method code SF-AS, from DOI: 10.1021/jm00128a017, PMID: 2754702", "conditions": "pH 7.4"}, "[6]": {"assay": "method code SF-CR+AS, from Korenman, I.; Lineva, S.; Gezikova, N. (1978). Extraction of naphthol-sulfonic acids from aqueous solution. Zh. Prikl. Khim., 51(4)869-871."}, "[7]": {"assay": "method code SF-HPLC, from DOI: 10.1016/0378-5173(88)90220-7", "conditions": "pH 7.4"}, "[8]": {"assay": "method code SF-AS, from DOI: 10.2307/3575639, PMID: 7313077", "conditions": "pH 7.4"}, "[9]": {"conditions": "pH 9.2"}, "[10]": {"assay": "method code SF-AS, from DOI: 10.1002/jps.2600711105", "conditions": "pH 7.4"}, "[11]": {"assay": "method code SF-HPLC, from DOI: 10.1021/jm00109a018, PMID: 2033591", "conditions": "pH 7.0"}, "[12]": {"assay": "method code SF-AS, from DOI: 10.5012/bkcs.2007.28.7.1183"}, "[13]": {"assay": "method code SF-AS, from DOI: 10.1016/s0021-9673(01)87148-x, PMID: 1744207", "conditions": "pH 3.4"}, "[14]": {"assay": "method code SF-AS, from DOI: 10.1016/s0378-5173(98)00405-0, PMID: 10089287", "conditions": "pH 7.4"}, "[15]": {"assay": "method code SF-RC, from DOI: 10.1016/j.nucmedbio.2007.06.005, PMID: 17707813", "conditions": "pH 7.4"}, "[16]": {"assay": "not given", "remark": "listed apart in the source"}, "[17]": {"assay": "method code SF-AS, from DOI: 10.1016/0005-2744(69)90103-x, PMID: 4387594"}, "[18]": {"assay": "method code SF-RC, from DOI: 10.1021/jm070791g.s001, PMID: 17960926"}, "[19]": {"assay": "method code SF-AS, from DOI: 10.1021/jm00154a021, PMID: 3959031", "conditions": "pH 9.0"}, "[20]": {"assay": "not given", "remark": "listed apart in the source"}, "[21]": {"assay": "method code SF-AS, from DOI: 10.1139/y89-042, PMID: 2547502", "conditions": "pH 7.4"}, "[22]": {"assay": "method code SF-AS, from DOI: 10.1111/j.2042-7158.1980.tb13082.x, PMID: 6110743"}, "[23]": {"assay": "method code SF-RC, from Audran, M.; Chanal, J.; Marignan, R.; Cousse, H. (1984). Correlations between structure and pharmacokinetic parameters in a series of cresotinamides. International Journal of Pharmaceutics, …", "conditions": "pH 1.0"}, "[24]": {"assay": "method code SF-RC, from DOI: 10.1182/blood.v76.11.2389.bloodjournal76112389, PMID: 2257308", "conditions": "pH 7.4"}, "[25]": {"assay": "method code SF-AS, from DOI: 10.1016/j.jct.2016.12.034", "conditions": "pH 7.4"}, "[26]": {"assay": "not given", "remark": "listed apart in the source"}, "[27]": {"assay": "method code SF-AS, from Dai, Y.; Jiang, J.; Wang, Z.; Xue, Q. (2007). Experimental and QPSR studies on octanol-water partition coefficient of substituted anilines. J. Struct. Chem, 26(12)1449-1454."}, "[28]": {"assay": "method code SF-AS, from DOI: 10.1016/0045-6535(95)00267-c"}, "[29]": {"assay": "not given", "remark": "listed apart in the source"}, "[30]": {"assay": "method code SF-AS, from DOI: 10.1016/s0045-6535(00)00181-8, PMID: 11272912"}, "[31]": {"assay": "method code SF-CR, from DOI: 10.1042/bj1780443, PMID: 109087", "conditions": "pH 7.4"}, "[32]": {"assay": "method code SF-AS, from DOI: 10.2116/analsci.13.897", "conditions": "pH 2.0"}, "[33]": {"assay": "method code G-HPLC, from DOI: 10.1016/s0021-9673(01)94303-1"}, "[34]": {"assay": "method code SF-HPLC, from DOI: 10.1002/hlca.19880710534", "conditions": "pH 7.4"}, "[35]": {"assay": "method code SF-GLC, from DOI: 10.1016/j.chemosphere.2005.05.003, PMID: 15967478"}, "[36]": {"assay": "not given", "remark": "listed apart in the source"}, "[37]": {"assay": "method code SF-RC, from DOI: 10.1002/jlcr.2580210110", "conditions": "pH 7.4"}, "[38]": {"assay": "method code SF-RC, from DOI: 10.1016/j.nucmedbio.2011.07.009, PMID: 21958846", "conditions": "pH 7.4"}, "[39]": {"assay": "method code SF-AS, from DOI: 10.1021/jm010817i, PMID: 11806714", "conditions": "pH 7.4"}, "[40]": {"assay": "not given", "remark": "listed apart in the source"}, "[41]": {"assay": "method code SF-AS, from DOI: 10.1021/jm00047a013, PMID: 7932583"}, "[42]": {"assay": "method code SF-HPLC, from Blakemore, C.; Brown, H.; Durant, J.; Emmett, C.; Ganellin, R.; Parsons, E.; Rasmussen, C. (1980). SK&F 92994: a new histamine H2-receptor antagonist. COMMUNICATIONS: Part II. Br. J. Pharmacol., …"}, "[43]": {"assay": "method code SF-AS, from DOI: 10.1002/jps.2600650731", "conditions": "pH 11.5"}, "[44]": {"assay": "method code SF-GLC, from DOI: 10.1021/je970069v"}, "[45]": {"assay": "method code SF-AS, from PMID: 6692390", "conditions": "pH 4.0"}}}
{"compound": "Nc1nc2c(ncn2[C@@H]2O[C@H](CO)[C@@H](O)[C@H]2O)c(=O)[nH]1", "values": [{"measurement": "logP", "setting": "[1]", "result": -1.85}]}
{"compound": "Cc1cn([C@H]2CC[C@@H](CO)O2)c(=O)[nH]c1=O", "values": [{"measurement": "logD", "setting": "[2]", "result": -0.7}]}
{"compound": "CCN(CC)c1nc(Cl)nc(NC(C)C)n1", "values": [{"measurement": "logP", "setting": "[3]", "result": 3.94}]}
{"compound": "CNC=Nc1ccc(C)cc1C", "values": [{"measurement": "logP", "setting": "[4]", "result": 2.92}]}
{"compound": "Nc1nc(N)c2ncn([C@H]3C=C[C@@H](CO)O3)c2n1", "values": [{"measurement": "logD", "setting": "[5]", "result": -0.48}]}
{"compound": "O=S(=O)(O)c1ccc(O)c2ccccc12", "values": [{"measurement": "logP", "setting": "[6]", "result": -0.44}]}
{"compound": "CC(=O)N(C)S(=O)(=O)c1ccc(C)cc1", "values": [{"measurement": "logD", "setting": "[7]", "result": 1.73}]}
{"compound": "CNC(=O)c1cc(N2CC2)c([N+](=O)[O-])cc1[N+](=O)[O-]", "values": [{"measurement": "logD", "setting": "[8]", "result": 0.44}]}
{"compound": "CN(C)CNC(=O)c1ccccc1", "values": [{"measurement": "logD", "setting": "[9]", "result": 0.85}]}
{"compound": "COCC(O)Cn1c([N+](=O)[O-])nc(C(C)=O)c1C", "note": "(stereo unspecified)", "values": [{"measurement": "logD", "setting": "[10]", "result": 0.03}]}
{"compound": "N=c1c2ncn([C@@H]3O[C@H](CO)C[C@@H]3F)c2ncn1O", "values": [{"measurement": "logD", "setting": "[11]", "result": -1.38}]}
{"compound": "Nc1ccc(S(=O)(=O)Nc2cnc(Cl)cn2)cc1", "values": [{"measurement": "logP", "setting": "[12]", "result": 0.25}]}
{"compound": "C/C(=C\\c1ccccc1)C(=O)O", "values": [{"measurement": "logD", "setting": "[13]", "result": 2.58}]}
{"compound": "Cc1nc2ccccn2c(=O)c1C", "values": [{"measurement": "logD", "setting": "[14]", "result": 1.14}]}
{"compound": "Nc1nc(F)c2ncn(CCC(CO)CO)c2n1", "values": [{"measurement": "logD", "setting": "[15]", "result": -0.52}]}
{"compound": "CCC(C)C1(CC)C(=O)NC(=O)NC1=O", "note": "(stereo unspecified)", "values": [{"measurement": "logP", "result": 1.58}]}
{"compound": "Cc1cnc2n(c1=O)CCCC2C", "note": "(stereo unspecified)", "values": [{"measurement": "logP", "setting": "[16]", "result": 0.69}]}
{"compound": "CCCCNc1ccccc1", "values": [{"measurement": "logP", "setting": "[17]", "result": 3.58}]}
{"compound": "O=c1[nH]c(=O)n([C@H]2C=C[C@@H](CO)C2)cc1I", "values": [{"measurement": "logP", "setting": "[18]", "result": 0.29}]}
{"compound": "CN1CCN(CCn2cncc2[N+](=O)[O-])CC1", "values": [{"measurement": "logD", "setting": "[19]", "result": -0.2}]}
{"compound": "CC(C)c1ccc(CO)cc1", "values": [{"measurement": "logP", "setting": "[20]", "result": 2.49}]}
{"compound": "Nc1ncnc2c1ncn2[C@@H]1O[C@@H]2COP(=O)(O)O[C@H]2[C@H]1O", "values": [{"measurement": "logD", "setting": "[21]", "result": -2.96}]}
{"compound": "CCCCOc1cccc(O)c1", "values": [{"measurement": "logP", "setting": "[22]", "result": 3.03}]}
{"compound": "CCNC(=O)c1cc(Cl)cc(C)c1O", "values": [{"measurement": "logD", "setting": "[23]", "result": 3.55}]}
{"compound": "CCc1c(O)c(=O)ccn1CCOC", "values": [{"measurement": "logD", "setting": "[24]", "result": -0.08}]}
{"compound": "CC(=O)Nc1ccc(C=NNC(N)=S)cc1", "values": [{"measurement": "logD", "setting": "[25]", "result": 1.7}]}
{"compound": "Cc1ccc(C(C)C)cc1", "values": [{"measurement": "logP", "setting": "[26]", "result": 4.14}]}
{"compound": "CCN(CC)c1ccccc1", "values": [{"measurement": "logP", "setting": "[27]", "result": 3.11}]}
{"compound": "CC(C)(C#N)Nc1nc(Cl)nc(NC2CC2)n1", "values": [{"measurement": "logP", "setting": "[28]", "result": 1.99}]}
{"compound": "CC(C)N1C(=O)c2ccccc2NS1(=O)=O", "values": [{"measurement": "logP", "setting": "[29]", "result": 1.95}]}
{"compound": "COc1cc(C=O)c(OC)c(OC)c1", "values": [{"measurement": "logP", "setting": "[30]", "result": 1.91}]}
{"compound": "Cc1cc(=O)oc2cc(O)ccc12", "values": [{"measurement": "logD", "setting": "[31]", "result": 1.9}]}
{"compound": "CCC(C(=O)O)c1ccccc1", "note": "(stereo unspecified)", "values": [{"measurement": "logD", "setting": "[32]", "result": 2.47}]}
{"compound": "CCCCc1ccccc1", "values": [{"measurement": "logP", "setting": "[33]", "result": 4.29}]}
{"compound": "C=CCC1(CC(C)O)C(=O)NC(=O)NC1=O", "note": "(stereo unspecified)", "values": [{"measurement": "logD", "setting": "[34]", "result": -0.01}]}
{"compound": "CC1=CCC(C(C)C)C=C1", "note": "(stereo unspecified)", "values": [{"measurement": "logP", "setting": "[35]", "result": 4.58}]}
{"compound": "CNC(=O)Oc1cc(C)c(C)cc1Cl", "values": [{"measurement": "logP", "setting": "[36]", "result": 2.3}]}
{"compound": "C1C2CC3CC1CC(C2)C3", "values": [{"measurement": "logD", "setting": "[37]", "result": 5.2}]}
{"compound": "Cc1c(CC(CO)CF)n(C)c(=O)[nH]c1=O", "note": "(stereo unspecified)", "values": [{"measurement": "logD", "setting": "[38]", "result": -0.56}]}
{"compound": "CC(=O)NCc1c(O)c(=O)cc(C)n1C", "values": [{"measurement": "logD", "setting": "[39]", "result": -0.82}]}
{"compound": "C1COC(NC(C2CC2)C2CC2)=N1", "values": [{"measurement": "logP", "setting": "[40]", "result": 1.63}]}
{"compound": "Cc1cn([C@H]2C[C@H](F)[C@@H](CO)O2)c(=O)[nH]c1=O", "values": [{"measurement": "logP", "setting": "[41]", "result": -0.3}]}
{"compound": "COC(=O)c1ccc(CN(C)N=O)cc1", "values": [{"measurement": "logP", "setting": "[42]", "result": 1.21}]}
{"compound": "CC/N=C(N)/N=C(\\N)Nc1ccc(Cl)cc1", "values": [{"measurement": "logD", "setting": "[43]", "result": 2.14}]}
{"compound": "Cc1ccc(C(C)C)c(Cl)c1Cl", "values": [{"measurement": "logP", "setting": "[44]", "result": 5.5}]}
{"compound": "CC(=O)c1ccc(NC(=O)N(C)N=O)cc1", "values": [{"measurement": "logD", "setting": "[45]", "result": 0.26}]}
